Tests used:
aSMase [1] = experiment: residual aSMase activity after treatment of PC12 cells with 10 micromolar agent; assay type: cell-based; conditions: from Table 1 residual aSMase activity
Protocol: The data were obtained in a cell-based study by adding 10 micromolar aliquots of the above agents to PC12 cells for the indicated amounts of time (usually 0.5, 6, or 24 hours). Cells were lysed and aSMase activity measured using [choline methyl-14C] sphingomyeline. The amount of aSMase activity following the treatment of the agent was compared to vehicle without any FIASM. […] The data for the listed compounds (n=276) is based on the publication by Kornhuber et al. 2008, including compounds number n=101 combined with an additional set of compounds (n=175) Kornhuber J, Muehlbacher M, Trapp S, Pechmann S, Friedl A, Reichel M, Mühle C, Terfloth L, Groemer T W, Spitzer G M, Liedl K R, Gulbins E, Tripal P. Identification of novel functional inhibitors of acid sphingomyelinase. PLOS One. 2011; 6 (8): e23852. doi: 10.1371/journal.pone.0023852. Epub 2011 Aug. 31. PMID: 21909365; PMCID: PMC3166082. The numbering of compounds is identical to the previous publication for the first 101 compounds. CID=PubChem Compound ID. Set: 1=experimental values from Kornhuber et al. 2008, 2=corrected experimental values of the previously published compounds; 3=newly investigated compounds, Acid/Base: 1=monobase, 2=monoacid, 3=bibase, 4=zwitter. Mean residual activity of ASM is given as % of the corresponding control values.

aSMase [2] = conditions: cited from earlier work
[3] = hairless mice, effect of propylene glycol; cited from earlier work
[4] = tested on: PDT-induced immunosuppression; experiment: contact hypersensitivity (CHS) to DNFB after PDT, ear thickness; assay type: in vivo, mice; conditions: aSMase-deficient (Smpd1-/-) mice, CPAF intraperitoneal
Description: Five days later the mice underwent sensitization with the neoantigen DNFB. To test for local immunosuppression, DNFB was applied to the PDT-treated area. To test for systemic immunosuppression, the DNFB was applied to back skin at least 2 cm away from the PDT-treated area. Nine days later the mice underwent elicitation reactions to DNFB by application to one ear, with vehicle applied to the other ear. One day later the ear thickness was obtained as a measure of CHS reaction and compared to pre-treatment and vehicle-treated values. Some mice were treated with intraperitoneal CPAF as a positive control for systemic immunosuppression.
For the data shown in FIG. 20, wild-type mice either were injected intraperitoneally with 250 ng CPAF as a positive control for immunosuppression, underwent PDT using 10 J/cm^2 blue light, or received no treatment (SHAM). […] Five days later the mice underwent sensitization with DNFB in PDT-treated (local immunosuppression) or non-PDT-treated skin (systemic immunosuppression). Nine days later the mice underwent elicitation reactions to ears with ear thickness measured at 24 hours. For the data shown in FIG. 21, wild type and aSMase-deficient (Smpd1−/−) mice underwent treatment with CPAF or PDT followed by DNFB sensitization/elicitation reactions as in FIG. 20. The data are mean±SD values. * Denotes statistically significant (P<0.05) changes from sham treatment values using two-way ANOVA.

[5] = tested on: human fibroblasts which lack PAFRs; experiment: MVP levels in human fibroblasts which lack PAFRs; assay type: cell-based; conditions: human fibroblasts lacking PAFRs, data not shown

Q: Which “potency relative to imipramine” value (aSMase [1]) does the source give for `CN(C)CCC=C1c2ccccc2CCc2ccccc21` [Amitriptyline] here?
A: approximately three times more potent than imipramine

Q: And the “Residual ASM Activity” value (aSMase [2]; 10 micromolar, PC12 cells, incubation time 0.5 h, % of corresponding control values)?
A: 11.7%

Q: What about the “residual aSMase activity after treatment” value (aSMase [2]; from Kornhuber et al. 2008) of the same compound?
A: 11.7%

Q: And the “absorption with propylene glycol” value [3]?
A: enhances absorption

Q: Which results are given for `CCCCCCCCCCCCCCCCOC[C@H](COP(=O)([O-])OCC[N+](C)(C)C)OC(=O)NC` [CPAF, carbamoyl-PAF]?
A: immunosuppression in aSMase KO mice (CHS to DNFB) [4]: resulted in similar levels of immunosuppression in comparison to wild-type mice; MVP levels in fibroblasts [5]: robust increases in MVP levels in response to PDT but not the PAFR agonist CPAF
